Data as given in patent publication US9079866B2, “Flap modulators” (JANSSEN PHARMACEUTICA NV, priority 2013, dated 2015).
Where a name gives a salt, the structure may show the parent alone.

Each molecule was assayed against human FLAP (Homo sapiens (Human), UniProt P20292) (assay: FLAP binding assay (HTRF format)). Settings: human FLAP wild type, HTRF format; average of two plates, duplicates.
human FLAP, sequence (P20292 whole entry): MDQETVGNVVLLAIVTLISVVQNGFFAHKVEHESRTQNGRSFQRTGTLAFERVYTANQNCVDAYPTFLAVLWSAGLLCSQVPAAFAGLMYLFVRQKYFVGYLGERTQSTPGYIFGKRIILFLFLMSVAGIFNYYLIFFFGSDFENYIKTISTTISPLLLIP
Procedure, shortened: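 Samples were run in duplicate on each of two plates and the plate results averaged. Read-out is the HTRF signal ratio.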
In the case of C[C@H](CO)NS(=O)(=O)Cc1ccccc1-c1ccc(-c2cnc(N)cn2)c(F)c1 [Example 225, (R)-1-(4′-(5-Aminopyrazin-2-yl)-3′-fluoro-[1,1′-biphenyl]-2-yl)-N-(1-hydroxypropan-2-yl)-methanesulfonamide hydrochloride], the Ki is reported as 856 nM.
With Nc1ncc(-c2ccc(-c3ccccc3NS(=O)(=O)N3CCOCC3)cc2F)cn1 [Example 310, N-[4′-(2-Aminopyrimidin-5-yl)-3′-fluorobiphenyl-2-yl]morpholine-4-sulfonamide] the Ki was 492 nM.
With CC(C)(C)S(=O)(=O)c1ccccc1-c1ccc(-c2cnc(N)cn2)c(F)c1 [Example 194, 5-[2′-(tert-Butylsulfonyl)-3-fluorobiphenyl-4-yl]pyrazin-2-amine] the Ki was 733 nM.
CS(=O)(=O)c1ccccc1-c1ccc(-c2ncc(N)nc2C#N)c(F)c1 [Example 3, 6-Amino-3-[3-fluoro-2′-(methylsulfonyl)biphenyl-4-yl]pyrazine-2-carbonitrile] showed a Ki greater than 10000 nM.
Molecule CS(=O)(=O)c1ccccc1-c1ccc(-c2ccc(N)nc2)c(F)c1 [Example 341, 5-(3-Fluoro-2′-(methylsulfonyl)-[1,1′-biphenyl]-4-yl)pyridin-2-amine] has a Ki greater than 10000 nM.
CCS(=O)(=O)c1ccccc1-c1ccc(-c2cnc(N)cn2)c(F)c1 [Example 191, 5-[2′-(Ethylsulfonyl)-3-fluorobiphenyl-4-yl]pyrazin-2-amine] gave a Ki of 658 nM.
Molecule CN(C)S(=O)(=O)c1ccccc1-c1ccc(-c2cnc(N)nc2)c(F)c1 [Example 299, 4′-(2-Aminopyrimidin-5-yl)-3′-fluoro-N,N-dimethylbiphenyl-2-sulfonamide trifluoroacetic acid salt] has a Ki of 121 nM.

Same assay, conditions: wild type FLAP, HTRF format
Nc1cnc(-c2ccc(-c3ccccc3C(=O)N3CCC[C@H](O)C3)cc2F)cn1 [Example 768, (3S)-1-{[4′-(5-Aminopyrazin-2-yl)-3′-fluorobiphenyl-2-yl]carbonyl}piperidin-3-ol] was tested, and the Ki was 573 nM.
Nc1ncc(-c2ccc(-c3ccccc3C(=O)N3CCOCC3)cn2)cn1 [Example 677, 5-{5-[2-(Morpholin-4-ylcarbonyl)phenyl]pyridin-2-yl}pyrimidin-2-amine] gave a Ki greater than 10000 nM.
Nc1cnc(-c2ccc(-c3cccnc3C(=O)N3CCOCC3)cc2F)cn1 [Example 783, 5-{2-Fluoro-4-[2-(morpholin-4-ylcarbonyl)pyridin-3-yl]phenyl}pyrazin-2-amine] showed a Ki greater than 10000 nM.
Molecule Nc1cc(S(=O)(=O)c2ccccc2-c2ccc(-c3cnc(N)nc3)c(F)c2)ncn1 [Example 721, 5-{2′-[(6-Aminopyrimidin-4-yl)sulfonyl]-3-fluorobiphenyl-4-yl}pyrimidin-2-amine] has a Ki greater than 10000 nM.
For Nc1cnc(-c2ccc(-c3ccccc3C(=O)N3CC(O)C3)cc2F)cn1 [Example 755, 1-{[4′-(5-Aminopyrazin-2-yl)-3′-fluorobiphenyl-2-yl]carbonyl}azetidin-3-ol], the Ki was 940 nM.
Molecule Nc1cnc(-c2ccc(-c3ccccc3C(=O)N3CCC(N)CC3)cc2F)cn1 [Example 515, 5-{2′-[(4-Aminopiperidin-1-yl)carbonyl]-3-fluorobiphenyl-4-yl}pyrazin-2-amine] has a Ki greater than 10000 nM.
Molecule Nc1cnc(-c2ccc(-c3ccccc3C(=O)NC3CCCCC3)cc2F)cn1 [Example 508, 4′-(5-Aminopyrazin-2-yl)-N-cyclohexyl-3′-fluorobiphenyl-2-carboxamide] has a Ki of 790 nM.
For Nc1ncc(-c2ccc(-c3ccccc3S(=O)(=O)c3cnccn3)cc2F)cn1 [Example 719, 5-[3-Fluoro-2′-(pyrazin-2-ylsulfonyl)biphenyl-4-yl]pyrimidin-2-amine], the Ki was greater than 10000 nM.
For Nc1ncc(-c2ccc(-c3ccccc3S(=O)(=O)CC(=O)N3CCOCC3)cc2F)cn1 [Example 601, 5-{3-Fluoro-2′-[(2-morpholin-4-yl-2-oxoethyl)sulfonyl]biphenyl-4-yl}pyrimidin-2-amine], the Ki was greater than 10000 nM.
Molecule CC(CO)Oc1ncccc1-c1ccc(-c2cnc(N)nc2)c(F)c1 (stereo in doubt) [Example 656, (2R)-2-({3-[4-(2-Aminopyrimidin-5-yl)-3-fluorophenyl]pyridin-2-yl}oxy)propan-1-ol] has a Ki of 1400 nM.
CN(C)S(=O)(=O)c1ccccc1-c1ccc(-c2cnc(N)cn2)cc1 [Example 572, 4′-(5-Aminopyrazin-2-yl)-N,N-dimethylbiphenyl-2-sulfonamide] showed a Ki of 370 nM.
In the case of CC(C)c1ccccc1-c1ccc(-c2cnc(N)cn2)c(F)c1 [Example 482, 5-[3-Fluoro-2′-(1-methylethyl)biphenyl-4-yl]pyrazin-2-amine], the Ki is reported as 120 nM.
C[C@H]1COCCN1C(=O)c1ccccc1-c1ccc(-c2cnc(N)nc2)c(F)c1 [Example 778, 5-(3-Fluoro-2′-{[(3S)-3-methylmorpholin-4-yl]carbonyl}biphenyl-4-yl)pyrimidin-2-amine] gave a Ki greater than 10000 nM.
Molecule Nc1cnc(-c2ccc(-c3cccnc3S(=O)(=O)C3CCNCC3)cc2F)cn1 [Example 832, 5-{2-Fluoro-4-[2-(piperidin-4-ylsulfonyl)pyridin-3-yl]phenyl}pyrazin-2-amine hydrochloride] has a Ki of 1310 nM.
Nc1ncc(-c2ccc(-c3ccccc3C(=O)N3CCC[C@@H](O)C3)cc2F)cn1 [Example 764, (3R)-1-{[4′-(2-Aminopyrimidin-5-yl)-3′-fluorobiphenyl-2-yl]carbonyl}piperidin-3-ol] showed a Ki greater than 10000 nM.
Nc1ncc(-c2ccc(-c3ccccc3S(=O)(=O)CC3CC3)cc2F)cn1 [Example 728, 5-{2′-[(Cyclopropylmethyl)sulfonyl]-3-fluorobiphenyl-4-yl}pyrimidin-2-amine] was tested, and the Ki was 781 nM.
With CC(O)C1CN(C(=O)c2ccccc2-c2ccc(-c3cnc(N)cn3)c(F)c2)CCO1 (mixture of isomers) [Example 758, 1-(4-{[4′-(5-Aminopyrazin-2-yl)-3′-fluorobiphenyl-2-yl]carbonyl}morpholin-2-yl)ethanol (Diastereomeric Mixture)] the Ki was 557 nM.
Molecule Nc1ncc(-c2ccc(-c3ccccc3C(=O)NC3CCC(O)CC3)cc2F)cn1 (mixture of isomers) [Example 765, (cis/trans) 4′-(2-Aminopyrimidin-5-yl)-3′-fluoro-N-(4-hydroxycyclohexyl)biphenyl-2-carboxamide] has a Ki greater than 10000 nM.
Work on CC(C)(C)NS(=O)(=O)c1ccccc1-c1ccc(-c2ccc3[nH]c(=O)[nH]c(=O)c3c2)c(F)c1 [Example 596, N-tert-Butyl-4′-(2,4-dioxo-1,2,3,4-tetrahydroquinazolin-6-yl)-3′-fluorobiphenyl-2-sulfonamide] yielded a Ki greater than 10000 nM.
C[C@@H](NC(=O)c1ccccc1-c1ccc(-c2cnc(N)nc2)c(F)c1)C(F)(F)F [Example 518, 4′-(2-Aminopyrimidin-5-yl)-3′-fluoro-N-[(1R)-2,2,2-trifluoro-1-methylethyl]biphenyl-2-carboxamide] gave a Ki greater than 10000 nM.
Work on C[C@H](CO)Oc1ncccc1-c1ccc(-c2cnc(N)nc2)c(F)c1 [Example 658, (2I)-2-({3-[4-(2-Aminopyrimidin-5-yl)-3-fluorophenyl]pyridin-2-yl}oxy)propan-1-ol] yielded a Ki of 572 nM.
For Nc1ncc(-c2ccc(-c3ccccc3C(=O)N3CCS(=O)(=O)CC3)cc2F)cn1 [Example 516, 5-{2′-[(1,1-Dioxidothiomorpholin-4-yl)carbonyl]-3-fluorobiphenyl-4-yl}pyrimidin-2-amine], the Ki was greater than 10000 nM.
Work on CC(C)(C)NS(=O)(=O)c1ccccc1-c1ccc(-c2cnc(N)nc2C#N)c(F)c1 [Example 703, 4′-(2-Amino-4-cyanopyrimidin-5-yl)-N-tert-butyl-3′-fluorobiphenyl-2-sulfonamide] yielded a Ki greater than 10000 nM.
CC(C)(C)NS(=O)(=O)c1ccccc1-c1ccc(-c2cn3cc(C(F)(F)F)ccc3n2)c(F)c1 [Example 586, N-tert-Butyl-3′-fluoro-4′-[6-(trifluoromethyl)imidazo[1,2-a]pyridin-2-yl]biphenyl-2-sulfonamide] was tested, and the Ki was greater than 10000 nM.
With O=C(c1ncccc1-c1ccc(-c2cnc3[nH]ccc3c2)c(F)c1)N1CCOCC1 [Example 781, 5-{2-Fluoro-4-[2-(morpholin-4-ylcarbonyl)pyridin-3-yl]phenyl}-1H-pyrrolo[2,3-b]pyridine] the Ki was 730 nM.
For Cc1ccccc1-c1ccc(-c2cnc(N)cn2)c(F)c1 [Example 470, 5-(3-Fluoro-2′-methylbiphenyl-4-yl)pyrazin-2-amine], the Ki was 620 nM.
Molecule CCc1ccccc1-c1ccc(-c2cnc(N)cn2)c(F)c1 [Example 480, 5-(2′-Ethyl-3-fluorobiphenyl-4-yl)pyrazin-2-amine] has a Ki of 354 nM.
CC(C)(C)NS(=O)(=O)c1ccccc1-c1ccc(-c2cn3c(C#N)cccc3n2)c(F)c1 [Example 584, N-tert-Butyl-4′-(5-cyanoimidazo[1,2-a]pyridin-2-yl)-3′-fluorobiphenyl-2-sulfonamide] was tested, and the Ki was greater than 10000 nM.
Nc1cnc(-c2ccc(-c3c(F)cccc3F)cc2F)cn1 [Example 478, 5-(2′,3,6′-Trifluorobiphenyl-4-yl)pyrazin-2-amine] showed a Ki of 250 nM.
In the case of CS(=O)(=O)Cc1ccccc1-c1ccc(-c2cnc(N)cn2)c(F)c1 [Example 750, 5-{3-Fluoro-2′-[(methylsulfonyl)methyl]biphenyl-4-yl}pyrazin-2-amine], the Ki is reported as 1160 nM.
Work on CC(C)(C)NS(=O)(=O)c1ccccc1-c1ccc(-c2cnc(NS(C)(=O)=O)cn2)c(F)c1 [Example 748, N-(tert-Butyl)-3′-fluoro-4′-(5-(methylsulfonamido)pyrazin-2-yl)-[1,1′-biphenyl]-2-sulfonamide] yielded a Ki greater than 10000 nM.
Nc1cnc(-c2ccc(-c3cccnc3OCC3CCNC3)cc2F)cn1 (centres unmarked) [Example 407, 5-{2-Fluoro-4-[2-(pyrrolidin-3-ylmethoxy)pyridin-3-yl]phenyl}pyrazin-2-amine] showed a Ki greater than 10000 nM.
For N#Cc1nc(-c2ccc(-c3ccccc3C(=O)N3CCOCC3)cc2F)cnc1N [Example 416, 3-Amino-6-[3-fluoro-2′-(morpholin-4-ylcarbonyl)biphenyl-4-yl]pyrazine-2-carbonitrile], the Ki was 1250 nM.
CC(C)(C(N)=O)S(=O)(=O)c1ccccc1-c1ccc(-c2cnc(N)nc2)c(F)c1 [Example 733, 2-{[4′-(2-Aminopyrimidin-5-yl)-3′-fluorobiphenyl-2-yl]sulfonyl}-2-methylpropanamide] was tested, and the Ki was greater than 10000 nM.
